Results from patent US8871753B2, “Macrocyclic compounds and their use as kinase inhibitors” (Incyte Corporation, priority 2008, dated 2014).
Counter-ions that a name gives are not always drawn. Like-named read-outs stand apart in the source and are kept apart here.

Tests used:
Format in all cases: biochemical
TYK2 = TYK2 (Homo sapiens, UniProt P29597); experiment: TYK2 kinase inhibition (Table A1)
[1] = target: T1, human JAK3 (a.a. 781-1124) (Homo sapiens, UniProt P52333); experiment: In vitro JAK kinase assay (HTRF, phosphorylation of a biotinylated peptide), JAK3
T1 construct: JAK3 (a.a. 781-1124); His tag (N); made in house; host or cells: insect cells (baculovirus)
Experimental: The catalytic activity of JAK1, JAK2 or JAK3 was assayed by measuring the phosphorylation of a biotinylated peptide. The phosphorylated peptide was detected by homogenous time resolved fluorescence (HTRF). […] The ATP concentration in the reactions was 90 μM for JAK1, 30 μM for JAK2 and 3 μM for JAK3. Reactions were carried out at room temperature for 1 hr and then stopped with 20 μL 45 mM EDTA, 300 nM SA-APC, 6 nM Eu-Py20 in assay buffer (Perkin Elmer, Boston, Mass.). Binding to the Europium labeled antibody took place for 40 minutes and HTRF signal was measured on a Fusion plate reader (Perkin Elmer, Boston, Mass.).
The catalytic activity of JAK1, JAK2 or JAK3 was assayed by measuring the phosphorylation of a biotinylated peptide. The phosphorylated peptide was detected by homogenous time resolved fluorescence (HTRF). […] Reactions were carried out at room temperature for 1 hr and then stopped with 20 μL 45 mM EDTA, 300 nM SA-APC, 6 nM Eu-Py20 in assay buffer (Perkin Elmer, Boston, Mass.). Binding to the Europium labeled antibody took place for 40 minutes and HTRF signal was measured on a Fusion plate reader (Perkin Elmer, Boston, Mass.).

[2] = target: T2, human JAK2 (a.a. 828-1132) (Homo sapiens, UniProt O60674); experiment: In vitro JAK kinase assay (HTRF, phosphorylation of a biotinylated peptide), JAK2
T2 construct: JAK2 (a.a. 828-1132); His tag (N); made in house; host or cells: insect cells (baculovirus)
How it was run: (§1)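 Kinase reactions ran at room temperature for 1 h with ATP matched per isoform (JAK1 90 μM, JAK2 30 μM, JAK3 3 μM). After an EDTA stop, the phosphorylated biotin-peptide was read by HTRF using Eu-Py20 and SA-APC after 40 min binding.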

[3] = target: T3, human JAK1 (a.a. 837-1142) (Homo sapiens, UniProt P23458); experiment: In vitro JAK kinase assay (HTRF, phosphorylation of a biotinylated peptide), JAK1; conditions: read-out: JAK1 IC50
T3 construct: human JAK1 (a.a. 837-1142); His tag (N); made in house; host or cells: insect cells (baculovirus)
How it was run: as §1

T1 sequence (P52333 781-1124): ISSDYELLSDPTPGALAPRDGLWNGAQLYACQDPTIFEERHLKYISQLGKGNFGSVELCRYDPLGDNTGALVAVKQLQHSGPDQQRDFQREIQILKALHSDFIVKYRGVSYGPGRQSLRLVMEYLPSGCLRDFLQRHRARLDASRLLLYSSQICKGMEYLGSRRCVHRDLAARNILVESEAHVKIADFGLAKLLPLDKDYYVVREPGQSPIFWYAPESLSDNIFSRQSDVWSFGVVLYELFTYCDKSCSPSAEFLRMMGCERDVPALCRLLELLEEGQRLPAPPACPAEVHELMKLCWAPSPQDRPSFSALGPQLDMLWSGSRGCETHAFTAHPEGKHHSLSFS
Chain of TYK2 (P29597 whole entry): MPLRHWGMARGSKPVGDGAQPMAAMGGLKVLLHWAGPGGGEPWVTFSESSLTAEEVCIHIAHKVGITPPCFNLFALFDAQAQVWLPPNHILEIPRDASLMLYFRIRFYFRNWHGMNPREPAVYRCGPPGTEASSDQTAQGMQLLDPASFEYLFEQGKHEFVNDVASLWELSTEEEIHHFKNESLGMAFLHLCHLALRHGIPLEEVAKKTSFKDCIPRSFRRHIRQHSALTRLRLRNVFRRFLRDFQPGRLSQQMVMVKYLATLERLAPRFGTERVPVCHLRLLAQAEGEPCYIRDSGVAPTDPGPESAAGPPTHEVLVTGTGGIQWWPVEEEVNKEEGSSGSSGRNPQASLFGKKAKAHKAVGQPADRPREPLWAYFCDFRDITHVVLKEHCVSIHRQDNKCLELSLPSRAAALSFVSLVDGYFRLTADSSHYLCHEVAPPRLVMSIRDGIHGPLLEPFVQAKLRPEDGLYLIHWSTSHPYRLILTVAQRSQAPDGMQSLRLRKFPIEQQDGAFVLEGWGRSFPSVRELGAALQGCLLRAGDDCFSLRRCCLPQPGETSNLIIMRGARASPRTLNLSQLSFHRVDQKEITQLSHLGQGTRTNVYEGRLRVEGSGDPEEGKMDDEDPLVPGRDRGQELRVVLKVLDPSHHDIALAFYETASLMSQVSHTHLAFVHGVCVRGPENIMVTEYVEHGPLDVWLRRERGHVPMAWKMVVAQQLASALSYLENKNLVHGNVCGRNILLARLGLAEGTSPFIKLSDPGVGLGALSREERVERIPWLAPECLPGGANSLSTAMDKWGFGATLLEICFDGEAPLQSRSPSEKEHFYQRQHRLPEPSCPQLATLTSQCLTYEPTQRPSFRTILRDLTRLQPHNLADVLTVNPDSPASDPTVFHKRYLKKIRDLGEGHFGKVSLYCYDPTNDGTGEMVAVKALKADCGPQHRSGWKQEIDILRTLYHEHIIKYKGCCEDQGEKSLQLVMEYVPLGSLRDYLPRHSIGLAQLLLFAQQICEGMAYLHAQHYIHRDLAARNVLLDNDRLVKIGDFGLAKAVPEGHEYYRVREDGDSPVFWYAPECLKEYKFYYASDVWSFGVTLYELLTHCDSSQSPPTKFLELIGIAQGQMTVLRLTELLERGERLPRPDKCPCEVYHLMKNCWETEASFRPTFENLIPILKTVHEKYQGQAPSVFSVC
T2 sequence (O60674 828-1132): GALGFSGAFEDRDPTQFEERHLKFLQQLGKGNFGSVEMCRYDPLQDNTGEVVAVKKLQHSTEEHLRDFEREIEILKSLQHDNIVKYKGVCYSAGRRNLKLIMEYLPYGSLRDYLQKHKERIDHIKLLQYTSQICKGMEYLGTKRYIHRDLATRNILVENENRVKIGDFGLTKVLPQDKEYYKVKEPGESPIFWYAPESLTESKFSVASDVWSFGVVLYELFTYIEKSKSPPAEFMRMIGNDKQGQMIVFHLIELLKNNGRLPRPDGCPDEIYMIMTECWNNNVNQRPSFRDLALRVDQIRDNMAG
T3 sequence (P23458 849-1154): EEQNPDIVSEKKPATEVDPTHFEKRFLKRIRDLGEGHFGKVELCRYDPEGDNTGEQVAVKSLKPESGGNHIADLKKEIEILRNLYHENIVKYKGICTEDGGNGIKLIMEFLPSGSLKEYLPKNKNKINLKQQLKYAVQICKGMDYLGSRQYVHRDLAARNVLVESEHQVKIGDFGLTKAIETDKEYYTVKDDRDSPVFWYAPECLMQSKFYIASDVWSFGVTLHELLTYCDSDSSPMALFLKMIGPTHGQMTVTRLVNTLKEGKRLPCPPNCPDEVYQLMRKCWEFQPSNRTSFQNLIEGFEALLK

IC50 (TYK2; Table D1) | IC50 ([1]; Table D1) | IC50 ([2]; Table D1) | IC50 ([3]; Table D1) | SMILES | also measured
> 0.4 µM | > 0.4 µM | > 0.4 µM | 0.075 µM | O=C(COc1ccc2cc1CCc1cncc(c1)Nc1ncc(Cl)c(n1)N2)N1CCN(c2nccc3occc23)CC1 [Example D245, 6-Chloro-12-[2-(4-furo[3,2-c]pyridin-4-ylpiperazin-1-yl)-2-oxoethoxy]-2,4,8,18,22-pentaazatetracyclo[14.3.1.1(3,7).1(9,13)]docosa-1(20),3(22),4,6,9(21),10,12,16,18-nonaene tris(trifluoroacetate)] | –
– | – | – | – | Cc1nc(S(=O)(=O)Nc2ccc3cc2CCc2cccc(c2)Nc2ncc(Cl)c(n2)N3)cn1C [Example B151, N-[6-Chloro-2,4,8,22-tetraazatetracyclo[14.3.1.1(3,7).1(9,13)]docosa-1(20),3(22),4,6,9(21),10,12,16,18-nonaen-12-yl]-1,2-dimethyl-1H-imidazole-4-sulfonamide bis(trifluoroacetate)] | IC50 (TYK2; Table B1): 0.0014 µM; IC50 ([1]; Table B1): 0.036 µM; IC50 ([2]; Table B1): 0.0012 µM; IC50 ([3]; Table B1): 0.0029 µM
> 0.4 µM | > 0.4 µM | 0.226 µM | 0.029 µM | N#CCC(=O)N1CCN(C(=O)COc2ccc3cc2CCc2cncc(c2)Nc2ncc(Cl)c(n2)N3)CC1 [Example D269, 3-[4-({[6-Chloro-2,4,8,18,22-pentaazatetracyclo[14.3.1.1(3,7).1(9,13)]docosa-1(20),3(22),4,6,9(21),10,12,16,18-nonaen-12-yl]oxy}acetyl)piperazin-1-yl]-3-oxopropanenitrile bis(trifluoroacetate)] | –
> 0.4 µM | > 0.4 µM | 0.106 µM | > 0.4 µM | CN1c2cccc(c2)CCc2cccc(c2)Nc2nccc1n2 [Example D223, 8-Methyl-2,4,8,22-tetraazatetracyclo[14.3.1.1(3,7).1(9,13)]docosa-1(20),3(22),4,6,9(21),10,12,16,18-nonaene trifluoroacetate] | –
> 0.4 µM | > 0.4 µM | 0.071 µM | 0.01 µM | O=C(Nc1ccccc1)N1CCC(CCOc2ccc3cc2CCc2cncc(c2)Nc2ncc(Cl)c(n2)N3)CC1 [Example D162, 4-(2-{[6-Chloro-2,4,8,18,22-pentaazatetracyclo[14.3.1.1(3,7).1(9,13)]docosa-1(20),3(22),4,6,9(21),10,12,16,18-nonaen-12-yl]oxy}ethyl)-N-phenylpiperidine-1-carboxamide bis(trifluoroacetate)] | –
0.288 µM | > 0.4 µM | 0.022 µM | 0.015 µM | O=C(COc1ccc2cc1CCc1cncc(c1)Nc1ncc(Cl)c(n1)N2)N1CCN(C(=O)c2ccno2)CC1 [Example D260, 6-Chloro-12-{2-[4-(isoxazol-5-ylcarbonyl)piperazin-1-yl]-2-oxoethoxy}-2,4,8,18,22-pentaazatetracyclo[14.3.1.1(3,7).1(9,13)]docosa-1(20),3(22),4,6,9(21),10,12,16,18-nonaene bis(trifluoroacetate)] | –
> 0.4 µM | > 0.4 µM | > 0.4 µM | 0.1 µM | O=C(COc1ccc2cc1CCc1cncc(c1)Nc1ncc(Cl)c(n1)N2)N1CCN(c2ncccn2)CC1 [Example D233, 6-Chloro-12-[2-oxo-2-(4-pyrimidin-2-ylpiperazin-1-yl)ethoxy]-2,4,8,18,22-pentaazatetracyclo[14.3.1.1(3,7).1(9,13)]docosa-1(20),3(22),4,6,9(21),10,12,16,18-nonaene tris(trifluoroacetate)] | –
– | – | – | – | Cc1ccc(C(=O)N2Cc3cccc(c3)Nc3ncc(Cl)c(n3)Nc3cccc2c3)cc1 [Example C24, 6-Chloro-14-(4-methylbenzoyl)-2,4,8,14,22-pentaazatetracyclo[14.3.1.1(3,7).1(9,13)]docosa-1(20),3(22),4,6,9(21),10,12,16,18-nonaene] | IC50 (TYK2): 1.03 µM; IC50 [1]: 1.2 µM; IC50 [2]: 0.154 µM; IC50 [3]: 0.095 µM
> 0.4 µM | > 0.4 µM | 0.208 µM | 0.101 µM | N#Cc1ccc(N2CCN(C(=O)COc3ccc4cc3CCc3cncc(c3)Nc3ncc(Cl)c(n3)N4)CC2)nc1 [Example D239, 6-[4-({[6-Chloro-2,4,8,18,22-pentaazatetracyclo[14.3.1.1(3,7).1(9,13)]docosa-1(20),3(22),4,6,9(21),10,12,16,18-nonaen-12-yl]oxy}acetyl)piperazin-1-yl]nicotinonitrile tris(trifluoroacetate)] | –
– | – | – | – | O=C(Cc1ccsc1)Nc1ccc2cc1CCc1cccc(c1)Nc1ncc(Cl)c(n1)N2 [Example C32, N-[6-Chloro-2,4,8,22-tetraazatetracyclo[14.3.1.1(3,7).1(9,13)]docosa-1(20),3(22),4,6,9(21),10,12,16,18-nonaen-12-yl]-2-(3-thienyl)acetamide trifluoroacetate] | IC50 (TYK2): 0.044 µM; IC50 [1]: 0.658 µM; IC50 [2]: 0.02 µM; IC50 [3]: 0.034 µM
0.0089 µM | 0.0057 µM | 0.0014 µM | 0.034 µM | Clc1cnc2nc1Nc1cccc(c1)OCCc1cc(CN3CCNCC3)cc(c1)N2 [Example D191, 6-Chloro-19-(piperazin-1-ylmethyl)-14-oxa-2,4,8,23-tetraazatetracyclo[15.3.1.1(3,7).1(9,13)]tricosa-1(21),3(23),4,6,9(22),10,12,17,19-nonaene tris(trifluoroacetate)] | –
> 0.4 µM | > 0.4 µM | > 0.4 µM | 0.15 µM | CC(=O)N1CCC(Nc2ccc3cc2CCc2cncc(c2)Nc2ncc(Cl)c(n2)N3)CC1 [Example D158, N-(1-Acetylpiperidin-4-yl)-6-chloro-2,4,8,18,22-pentaazatetracyclo[14.3.1.1(3,7).1(9,13)]docosa-1(20),3(22),4,6,9(21),10,12,16,18-nonaen-12-amine tris(trifluoroacetate)] | –
> 0.4 µM | > 0.4 µM | 0.021 µM | 0.031 µM | Cc1cc(C(=O)N2CCN(C(=O)COc3ccc4cc3CCc3cncc(c3)Nc3ncc(Cl)c(n3)N4)CC2)n[nH]1 [Example D266, 6-Chloro-12-(2-{4-[(5-methyl-1H-pyrazol-3-yl)carbonyl]piperazin-1-yl}-2-oxoethoxy)-2,4,8,18,22-pentaazatetracyclo[14.3.1.1(3,7).1(9,13)]docosa-1(20),3(22),4,6,9(21),10,12,16,18-nonaene tris(trifluoroacetate)] | –
0.16 µM | 0.138 µM | 0.043 µM | 0.079 µM | O=C(c1ccccc1)N1CCN(c2ccc3cc2CCc2cccc(c2)Nc2ncc(Cl)c(n2)N3)CC1 [Example D94, 12-(4-Benzoylpiperazin-1-yl)-6-chloro-2,4,8,22-tetraazatetracyclo[14.3.1.1(3,7).1(9,13)]docosa-1(20),3(22),4,6,9(21),10,12,16,18-nonaene bis(trifluoroacetate)] | –
– | – | – | – | O=C(Cc1ccco1)Nc1ccc2cc1CCc1cccc(c1)Nc1ncc(Cl)c(n1)N2 [Example C36, N-[6-Chloro-2,4,8,22-tetraazatetracyclo[14.3.1.1(3,7).1(9,13)]docosa-1(20),3(22),4,6,9(21),10,12,16,18-nonaen-12-yl]-2-(2-furyl)acetamide trifluoroacetate] | IC50 (TYK2): 0.103 µM; IC50 [1]: 0.663 µM; IC50 [2]: 0.042 µM; IC50 [3]: 0.033 µM
– | – | – | – | Cc1nc(CC(=O)Nc2ccc3cc2CCc2cccc(c2)Nc2ncc(Cl)c(n2)N3)cs1 [Example C38, N-[6-Chloro-2,4,8,22-tetraazatetracyclo[14.3.1.1(3,7).1(9,13)]docosa-1(20),3(22),4,6,9(21),10,12,16,18-nonaen-12-yl]-2-(2-methyl-1,3-thiazol-4-yl)acetamide trifluoroacetate] | IC50 (TYK2): 0.039 µM; IC50 [1]: 1.07 µM; IC50 [2]: 0.047 µM; IC50 [3]: 0.037 µM
0.021 µM | 0.065 µM | 0.008 µM | 0.0057 µM | O=C(C[C@H]1CCCN(C(=O)Nc2ccccc2)C1)Nc1ccc2cc1CCc1cncc(c1)Nc1ncc(Cl)c(n1)N2 [Example D199, (3R)-3-(2-{[6-Chloro-2,4,8,18,22-pentaazatetracyclo[14.3.1.1(3,7).1(9,13)]docosa-1(20),3(22),4,6,9(21),10,12,16,18-nonaen-12-yl]amino}-2-oxoethyl)-N-phenylpiperidine-1-carboxamide bis(trifluoroacetate)] | –
– | – | – | – | Cc1cc(C(=O)N2CCC(CC(=O)Nc3ccc4cc3CCc3cccc(c3)Nc3ncc(C)c(n3)N4)CC2)no1 [Example C54, 2-{1-[(5-Methylisoxazol-3-yl)carbonyl]piperidin-4-yl}-N-[6-methyl-2,4,8,22-tetraazatetracyclo[14.3.1.1(3,7).1(9,13)]docosa-1(20),3(22),4,6,9(21),10,12,16,18-nonaen-12-yl]acetamide trifluoroacetate] | IC50 (TYK2): 0.199 µM; IC50 [1]: > 0.2 µM; IC50 [2]: 0.199 µM; IC50 [3]: 0.065 µM
